Assay results published in patent US20110239327A1, “Nematicidal Effects of Cysteine Proteinases and Methods of Use Thereof to Treat Nematode Infestation” (priority 2007, published 2011).

How the values were obtained:
Meloidogyne spp. J2s = experiment: In vitro mobility of Meloidogyne spp. J2s exposed to plant cysteine proteinases; type: cell-based, M. incognita or M. javanica; conditions: 1 mM E-64, J2s incubated without enzyme
Procedure: Eggs of M. incognita race 1 from North Carolina State University, USA, and M. javanica from Portugal were collected from the roots of infected tomato plants grown in a glasshouse at 23° C. in a 16:8 h light-dark regime. Eggs were extracted using 1% hypochlorite (NaClO) solution (Hussey and Barker, 1973) or by picking egg masses from the infected roots. M. incognita and M. javanica were both used in the experiments and produced similar results. Juveniles (J2) were hatched from the eggs and egg masses in water. Globodera rostochiensis cysts were washed extensively in distilled water. Hatched J2s were obtained by incubating cysts in distilled water for 4 days followed by exposure to potato root diffusate (PRD).
Approximately 1000 J2s (second juvenile stage) of M. incognita or M. javanica were incubated per well of a 48-well plate with the following active enzyme concentrations (determined by E-64 titration) of papain dissolved in distilled water containing 16 mM L-cysteine (to activate the cysteine proteinase): 1.5 μM, 3 μM, 6.25 μM, 12.5 μM, 25 μM, 50 μM, 75 μM and 100 μM. […] The number of active J2s per well was counted prior to the addition of papain, and then the J2s were incubated in the dark at room temperature for 3 h. The number of mobile J2s per well was counted after 60, 120 and 180 mins. […]

larvae in infected soil = conditions: cited from earlier work
M. incognita J2 [1] = experiment: In planta bioassay, two soil applications: nematode infection of tomato roots; type: in vivo, M. incognita on tomato plants; conditions: nematicide alone, no enzyme
Procedure: Oxamyl is supplied as 10% liquid Vydate. 125 μl of a solution 1000 fold dilution of 10% formulation (kindly supplied by DK from NIU) was applied to 5 g of the soil mixture with 16% organic matter, to give a partial nematicidal effect. Soil mixtures were wetted with PBS pH 7.2, 16 hrs prior nematode application of 1000 or 2000 M. incognita J2. Infected soil mixtures were treated with water (control) or 250 μM of active papain in 16 mM of L-cysteine or a combination of Vydate and 250 μM of active papain in 16 mM of L-cysteine. After 48 hs tomato seedlings one month old were added to the treated soils. After 11 days the roots were washed free of soil and chopped to approximately 2 mm pieces. The root pieces of each tomato plant was placed in muslin bags and stained with acid-fuchsin. The stained roots were examined under microscope and all the nematodes present in the roots were counted. […] After 48 hours tomato seedlings one month old were added to the treated soils and after 11 days post infection nematode development inside root tissues was assessed as described above.
The avermectins are macrocyclic lactones produced by the actinomycete Streptomyces avermitilis. […] After 48 hs tomato seedlings one month old were added to the treated soils and after 11 days post infection nematode development inside root tissues was assessed as described above. […]

M. incognita J2 [2] = experiment: In vitro assay of M. incognita J2 present in soil mixtures; type: cell-based; conditions: Triton x-100 (1%), Milk (5%)
Procedure: The same procedure described above was used to determine the effect of the cysteine proteinases against M. incognita J2 present in soil mixtures. The following soil mixtures were used: fine and coarse sand, peat and fine/coarse sand and loam mix and fine/coarse sand. These soil mixtures were prepared at concentrations of 1:1, 1:3 and 1:6 and autoclaved at […] for 20 min. Peat and loam-mix were obtained from Rothamsted-Research. Soil mixtures were added to 24 well plates (0.5 g) and wetted for 16 hs with either PBS ph 7.2, Tx-100, Milk 5% or cysteine proteinases, in order to wet the soil and block non-specific binding sites present in the soil particles. Then, approximately 100 J2 were added to the wells, followed by cysteine proteinases with 16 mM of L-cysteine to activate the cysteine proteinases or water as control. After 16 hs at room temperature in the dark, individual wells of the 24 well plates were flushed with 1 ml of distilled water to recover the nematodes from the soil mixtures. These were placed in a 24 well plate and the number of dead/live nematodes scored under microscopic observation.
These in vitro experiments were performed in 24 well plates using sterile soil mixtures to diminish the possibility of biological degradation of the enzyme by microorganisms. […] The number of live nematodes was counted before and after enzyme treatment. […]

## CC(C)C[C@H](NC(=O)[C@H]1O[C@@H]1C(=O)O)C(=O)NCCCCN=C(N)N (relative stereo) [E-64, L-trans-epoxysuccinyl-leucylamido(4-guanidino)butane, reference compound]
Meloidogyne spp. J2s
  proportion of active worms on addition of E-64: No change in the proportion of active worms

## Abamectin
Larvae in infected soil; 300 μl of abamectin solution (100 mg/l) to 50 g of infected soil
  larvae development allowed: 0%
Larvae in infected soil; 2000 (so in the source) of abamectin solution (100 mg/l) to 50 g of infected soil
  larvae allowed to develop: 75%
M. incognita J2 [1]
  nematicidal effect (reduction of nematode infection): 94%

## Triton x-100
M. incognita J2 [2]
  effect of blocking agents on nematode mobility: slightly affected nematode mobility
